Laboratory results as given in ChEMBL document CHEMBL5532656, “Novel ligustilide derivatives target quorum sensing system LasR/LasB and relieve inflammatory response against Pseudomonas aeruginosa infection” (Eur J Med Chem, 2024).

Experiment: Inhibition of quorum sensing system in Pseudomonas aeruginosa PAO1-lasB-gfp at 10 uM relative to control

Structure (SMILES)	inhibition
CCCCC1(O)C2=C(C=CCC2)C(=O)N1CCCCc1ccccc1 (configuration not stated)	18.1%
CCCCC1(O)C2=C(C=CCC2)C(=O)N1c1ccccc1 (configuration not stated)	15.1%
CCCCC1(O)C2=C(C=CCC2)C(=O)N1Cc1cccnc1 (configuration not stated)	31.9%
CCCCC1(O)C2=C(C=CCC2)C(=O)N1CCc1c[nH]c2ccc(O)cc12 (configuration not stated)	37.7%
CCCCC1(O)C2=C(C=CCC2)C(=O)N1C1CCCC1 (configuration not stated)	16.7%
CCCCC1(O)C2=C(C=CCC2)C(=O)N1Cc1cccc(C(F)(F)F)c1 (configuration not stated)	39.4%
CCCCC1(O)C2=C(C=CCC2)C(=O)N1Cc1ccc(O)cc1 (configuration not stated)	40.2%
C#CCN1C(=O)C2=C(CCC=C2)C1(O)CCCC (configuration not stated)	21.5%
CCCCC1(O)C2=C(C=CCC2)C(=O)N1CC (configuration not stated)	17.4%
CCCCCN1C(=O)C2=C(CCC=C2)C1(O)CCCC (configuration not stated)	21.2%
CCCCC1(O)C2=C(C=CCC2)C(=O)N1CCC (configuration not stated)	21.1%
CCCCC1(O)C2=C(C=CCC2)C(=O)N1Cc1ccc(C#N)cc1 (configuration not stated)	44.3%
CCCCC1(O)C2=C(C=CCC2)C(=O)N1Cc1ccco1 (configuration not stated)	33.9%
CCCCC1(O)C2=C(C=CCC2)C(=O)N1Cc1cccc(Cl)c1 (configuration not stated)	34.2%
CCCCC1(O)C2=C(C=CCC2)C(=O)N1CCc1c[nH]c2ccc(OC)cc12 (configuration not stated)	30.6%
CCCCC1(O)C2=C(C=CCC2)C(=O)N1C1CC1 (configuration not stated)	20.4%
CCCCC1(O)C2=C(C=CCC2)C(=O)N1Cc1ccccc1OC (configuration not stated)	36.3%
CCCCC1(O)C2=C(C=CCC2)C(=O)N1Cc1ccc(Cl)cc1 (configuration not stated)	47.4%
CCCCC1(O)C2=C(C=CCC2)C(=O)N1Cc1cccc(-c2ccccc2)c1 (configuration not stated)	32.9%

Structure (SMILES)	inhibition
CCCCC1(O)C2=C(C=CCC2)C(=O)N1Cc1ccccc1F (configuration not stated)	40.4%
CCCCC1(O)C2=C(C=CCC2)C(=O)N1Cc1cccc(F)c1 (configuration not stated)	41%
CCCCC1(O)C2=C(C=CCC2)C(=O)N1C1CCCCC1 (configuration not stated)	16.4%
CCCCC1(O)C2=C(C=CCC2)C(=O)N1Cc1ccccc1Cl (configuration not stated)	37.6%
CCCCC1(O)C2=C(C=CCC2)C(=O)N1Cc1ccccc1C(F)(F)F (configuration not stated)	45.1%
CCCCC1(O)C2=C(C=CCC2)C(=O)N1Cc1cccc(OC)c1 (configuration not stated)	29.4%
CCCCC1(O)C2=C(C=CCC2)C(=O)N1c1ncccn1 (configuration not stated)	35.5%
CCCCC1(O)C2=C(C=CCC2)C(=O)N1Cc1ccc(C(C)C)cc1 (configuration not stated)	40.7%
CCCCC1(O)C2=C(C=CCC2)C(=O)N1Cc1cccs1 (configuration not stated)	29.7%
CCCCC1(O)C2=C(C=CCC2)C(=O)N1Cc1ccc(OC)cc1 (configuration not stated)	40.7%
CCCCC1(O)C2=C(C=CCC2)C(=O)N1Cc1ccc(C)cc1 (configuration not stated)	41.5%
CCCCC1(O)C2=C(C=CCC2)C(=O)N1Cc1ccc(Br)cc1 (configuration not stated)	45.2%
CCCCC1(O)C2=C(C=CCC2)C(=O)N1Cc1ccc(OCC)cc1 (configuration not stated)	40.5%
CCCCC1(O)C2=C(C=CCC2)C(=O)N1Cc1ccc(-c2ccccc2)cc1 (configuration not stated)	43.8%
CCCCC1(O)C2=C(C=CCC2)C(=O)N1Cc1ccc(F)cc1 (configuration not stated)	41.5%
CCCCC1(O)C2=C(C=CCC2)C(=O)N1Cc1ccc(N(C)C)cc1 (configuration not stated)	35.3%
CCCCC1(O)C2=C(C=CCC2)C(=O)N1CCc1ccccc1 (configuration not stated)	11.6%
CCCCN1C(=O)C2=C(CCC=C2)C1(O)CCCC (configuration not stated)	21.6%
